Patent publication US7732485B2, “Treatment of cancer” (The University of Manchester, priority 2003, dated 2010)

What was measured:
A2780carb cell line = assay: Growth inhibition assay (modified MTT); format: cell-based, human; conditions: A2780carb, five-day MTT
Protocol: (§1) The sensitivities of the cell lines to cisplatinum, carboplatinum, and compounds A-F were determined using a growth inhibition assay which was a modified version of the MTT method (modified version of MTT method described in Appendix B).
(§2) The following is a brief description of the eleven different cell lines used in the growth inhibition assay: • The A2780 cell line (1 in FIGS. 1-9) is a human ovarian cell line which is sensitive to cisplatinum and carboplatinum. […] The cor123/cpr (7) cell line is a modified version of the cor123 cell line which has been modified to be resistant to cisplatinum and carboplatinum. • The ccu24 (8) cell line is an epithelial ovarian cancer cell line, developed at the Christie Hospital from a tumour biopsy, and the ccu24/cpr (9) cell line is a modified version of this cell line which is cisplatinum and carboplatinum resistant. • L1210 (10) is a murine leukemia cell line and L1210/M1140 (11) is its platinum drug resistant subline.
(§3) The cell toxicity studies were performed using a modification of the method MTT.^7 The principle of the assay is to assess the growth inhibitory effect of a drug at various doses over a five-day time course. This assay was performed in 96-well microtitre plates. Cells were seeded at densities of 400-1,000 cells per well, depending on the doubling time of the cell line. All cell dilutions were performed in growth medium containing 10% FCS (foetal calf serum).
(§4) Compounds under investigation were dissolved in DMSO (dimethylsulphoxide). Serial dilutions of compound were made into the cell suspension, ensuring that the proportion of DMSO remained below 0.5%. 200 μl of cells and drug mix was added to the 96-well plates in triplicate. The plates were incubated for five days at 5% CO2 and 37° C. After this time, the plates were removed from the incubator and 50 μl of a 3 mg/ml solution of MTT [3-(4,5-dimethyl-thiazol-2-yl)-2,5-diphenyl tetrazolium bromide] was added to each well and incubated in the same conditions for another 3 hours. The medium from each well was aspirated and the formazan crystals were solubilised in 200 μl of DMSO. The plates were read using a Multiskan platereader at 540 nm and 690 nm. Growth inhibition curves were constructed using mean and standard deviation of the triplicate absorbance values and from these curves the IC50 values were calculated.

A2780-S cell line = assay: Growth inhibition assay (modified MTT); format: cell-based, human; conditions: five-day MTT
Protocol: as §1, §2, §3, §4

ccu24/cpr cell line = assay: Growth inhibition assay (modified MTT); format: cell-based, human; conditions: five-day MTT
Protocol: as §1, §2, §3, §4

mcp8 cell line = assay: Growth inhibition assay (modified MTT); format: cell-based, human; conditions: five-day MTT
Protocol: as §1, §2, §3, §4

ccu24 cell line = assay: Growth inhibition assay (modified MTT); format: cell-based, human; conditions: five-day MTT
Protocol: as §1, §2, §3, §4

cor123 cell line = assay: Growth inhibition assay (modified MTT); format: cell-based, human; conditions: five-day MTT
Protocol: as §1, §2, §3, §4

mcp1 cell line = assay: Growth inhibition assay (modified MTT); format: cell-based, human; conditions: five-day MTT
Protocol: as §1, §2, §3, §4

A2780cis cell line = assay: Growth inhibition assay (modified MTT); format: cell-based, human; conditions: A2780cis, five-day MTT
Protocol: as §1, §2, §3, §4

cor123/cpr cell line = assay: Growth inhibition assay (modified MTT); format: cell-based, human; conditions: five-day MTT
Protocol: as §1, §2, §3, §4

[1] = system: parental and platinum-resistant cell lines; assay: Comet assay, DNA cross-linking, summary of FIGS. 1-9; format: cell-based; conditions: FIGS. 1 and 2
Protocol: (§5) Preliminary studies have been carried out to investigate the mechanism underlying this increased sensitivity. These studies were carried out using the Comet assay (described in Appendix C), which measures damage to DNA. The results are shown in FIGS. 1 (cisplatinum), 2 (carboplatinum), 3 to 8 (compounds A-F) and 9 (phenylgoldtriphenylphospine, PAuP).
(§6) DNA damage was measured by the single cell gel electrophoresis (SCGE) assay or “Comet assay”, originally developed by Ostling and Johnson^8. This is a method for determining the extent of DNA damage and repair capacity within individual cells.^9-11 It has previously been shown that this technique can be used to investigate the mechanism of action of different DNA damaging agents.^12
(§7) Cells were trypsinised, suspended in 0.5 ml of ice cold fresh medium and transferred into plastic 24-well dishes prior to embedding in agarose. For the cross-linking studies treated and control samples were chilled on ice (to prevent any repair of DNA damage) and irradiated to a dose of 20 Gy in a Caesium-137 source (0.4 Gy/min). Control, (unirradiated, non-drug treated cells) were maintained on ice in the same manner as treated samples.
(§8) Glass microscope slides, frosted at one end, were pre-coated with 1% normal agarose in distilled water. These slides were allowed to air dry overnight prior to use. A 1% low melting point agarose (LMP) mixture in PBS was melted and held at 45° C. 1 ml of LMP was then added to 0.5 ml of cell suspension on ice and the resultant mixture was pipetted onto a pre-coated glass microscope slide and allowed to set for 1-2 minutes before being transferred to an ice tray. The slides were immersed in ice cold lysis solution (100 mM EDTA, 10 mM Tris-HCl, 1% Triton ×100, 1% DMSO, 2.5M NaCl) for 1 hr, and washed three times by immersion in fresh double distilled water for 15 minutes.
(§9) Slides were then placed onto a flat bed electrophoresis tank and covered (5-6 mm) with alkali unwinding solution (50 mM NaOH, 1 mM EDTA buffered to pH 12.5) and left under subdued lighting for 45 minutes to allow the DNA to unwind before being subjected to electrophoresis at 0.6V/cm for 25 minutes. Each slide was rinsed with 2×1 ml of 0.4M Tris-HCl, pH 8.0 and allowed to dry in air. The dried slides were then rehydrated for 20 minutes with double distilled water, 2×1 ml of propidium iodide solution (2.5 μg/ml) was added and staining was allowed to proceed for 15 minutes. Slides were then immersed in 1 litre of double distilled water for 1 hour to reduce excess background staining. The slides were cover slipped and then examined at 250× magnification under an epifluorescent microscope (Zeiss-Jenamed) using green light from a 50 watt mercury source with a 580 nm reflector and a 590 nm barrier filter set. Images were captured using an attached Sony HAD-1 interline CCD camera and Komet software analysis package (Kinetic Imaging). Twenty-five images from each of two duplicate slides were captured and analysed and the individual “comet moments” as defined by Olive et al^13, were calculated. The total fluorescence of the image represents the amount of DNA present and the length of the image, measured in pixels, represents the length of migration of the DNA. The head and tail areas of the image were identified and the intensity of each was determined. The tail moment is calculated by multiplying the fraction of DNA present in the tail by half the length of the tail.

L1210/M1140 cell line = assay: Growth inhibition assay (modified MTT); format: cell-based, murine; conditions: five-day MTT
Protocol: as §1, §2, §3, §4

L1210 cell line = assay: Growth inhibition assay (modified MTT); format: cell-based, murine; conditions: five-day MTT
Protocol: as §1, §2, §3, §4

cor123 = assay: Comet assay, DNA crosslinking; format: cell-based, human; conditions: ratio >1 = more cross-linking in parental than in platinum-resistant line
Protocol: as §5
(§10) Table 3 illustrates the results of the following calculation using the DNA cross-linking results obtained in the Comet assays:
as §6, §7, §8, §9

A2780carb = assay: Comet assay, DNA crosslinking; format: cell-based, human; conditions: ratio >1 = more cross-linking in parental than in platinum-resistant line
Protocol: as §5, §10, §6, §7, §8, §9

A2780cis = assay: Comet assay, DNA crosslinking; format: cell-based, human; conditions: ratio >1 = more cross-linking in parental than in platinum-resistant line
Protocol: as §5, §10, §6, §7, §8, §9

ccu24 = assay: Comet assay, DNA crosslinking; format: cell-based, human; conditions: ratio >1 = more cross-linking in parental than in platinum-resistant line
Protocol: as §5, §10, §6, §7, §8, §9

A2780mcp1 = assay: Comet assay, DNA crosslinking; format: cell-based, human; conditions: ratio >1 = more cross-linking in parental than in platinum-resistant line
Protocol: as §5, §10, §6, §7, §8, §9

A2780/mcp8 = assay: Comet assay, DNA crosslinking; format: cell-based, human; conditions: ratio >1 = more cross-linking in parental than in platinum-resistant line
Protocol: as §5, §10, §6, §7, §8, §9

L1210 = assay: Comet assay, DNA crosslinking; format: cell-based, murine; conditions: ratio >1 = more cross-linking in parental than in platinum-resistant line
Protocol: as §5, §10, §6, §7, §8, §9

[2] = Table 2, further series of assays
[3] = Table 2, further series of assays, A2780/mcp8
[4] = Table 2, further series of assays, A2780/mcp1
[5] = Table 1, first series of assays
[6] = Table 1, first series of assays, mcp8
[7] = Table 1, first series of assays, mcp1

SMILES	IC50 (A2780carb cell line; [2])	IC50 (A2780-S cell line; [2])	IC50 (ccu24/cpr cell line; [2])	IC50 (mcp8 cell line; [3])	IC50 (ccu24 cell line; [2])	IC50 (cor123 cell line; [2])	IC50 (mcp1 cell line; [4])	IC50 (A2780cis cell line; [2])	IC50 (cor123/cpr cell line; [2])	IC50 (L1210/M1140 cell line; [2])	IC50 (L1210 cell line; [2])	DNA crosslinking (Comet) ratio (cor123)	DNA crosslinking (Comet) ratio (A2780carb)	DNA crosslinking (Comet) ratio (A2780cis)	DNA crosslinking (Comet) ratio (ccu24)	DNA crosslinking (Comet) ratio (A2780mcp1)	DNA crosslinking (Comet) ratio (A2780/mcp8)	IC50 (A2780carb cell line; [5])	IC50 (A2780-S cell line; [5])	IC50 (ccu24/cpr cell line; [5])	also measured
N.N.O=C([O-])C1(C(=O)[O-])CCC1.[Pt+2] [Carboplatin, carboplatin, reference compound]	32200 nM	1590 nM	27200 nM	26800 nM	5820 nM	5350 nM	24800 nM	34600 nM	29800 nM	47800 nM	15300 nM	–	–	–	–	–	–	–	–	–	DNA cross-linking in parental cell lines ([1]; parental (platinum-sensitive) A2780, L1210 and cor123 cell lines): extensive DNA cross-linking; DNA cross-linking in platinum-resistant cell lines ([1]; platinum-resistant cell lines): much less cross-linking
c1ccc([PH]([Au][CH2]c2cc[c]([Au][PH](c3ccccc3)(c3ccccc3)c3ccccc3)cc2)(c2ccccc2)c2ccccc2)cc1 [D]	13.5 nM	36.6 nM	15.6 nM	14.8 nM	39.5 nM	25.4 nM	19.5 nM	10.2 nM	19.7 nM	20.6 nM	50.3 nM	0.62	0.63	0.54	0.47	0.48	0.50	10.3 nM	32.4 nM	12.5 nM	IC50 (mcp8 cell line; [6]): 6.8 nM; IC50 (ccu24 cell line; [5]): 36.4 nM; IC50 (cor123 cell line; [5]): 22.3 nM; IC50 (mcp1 cell line; [7]): 8.4 nM; IC50 (A2780cis cell line; [5]): 7.3 nM; IC50 (cor123/cpr cell line; [5]): 15.7 nM; DNA crosslinking (Comet) ratio (L1210): 0.63; IC50 (L1210/M1140 cell line; [5]): 17.4 nM; IC50 (L1210 cell line; [5]): 48.7 nM
c1ccc([PH]([Au][CH2]c2ccc[c]([Au][PH](c3ccccc3)(c3ccccc3)c3ccccc3)c2)(c2ccccc2)c2ccccc2)cc1 [E]	0.9 nM	11.2 nM	5.4 nM	4.7 nM	13.5 nM	21.1 nM	3.9 nM	0.7 nM	4.4 nM	8.5 nM	35.6 nM	0.43	0.40	0.39	0.46	0.41	0.48	0.6 nM	8.9 nM	2.4 nM	IC50 (mcp8 cell line; [6]): 0.9 nM; IC50 (ccu24 cell line; [5]): 10.2 nM; IC50 (cor123 cell line; [5]): 17.7 nM; IC50 (mcp1 cell line; [7]): 0.9 nM; IC50 (A2780cis cell line; [5]): 0.4 nM; IC50 (cor123/cpr cell line; [5]): 1.4 nM; DNA crosslinking (Comet) ratio (L1210): 0.40; IC50 (L1210/M1140 cell line; [5]): 5.3 nM; IC50 (L1210 cell line; [5]): 32.5 nM
c1ccc([PH]([Au][CH2]c2cccc[c]2[Au][PH](c2ccccc2)(c2ccccc2)c2ccccc2)(c2ccccc2)c2ccccc2)cc1 [F]	10.4 nM	24.3 nM	12.2 nM	11.4 nM	26.4 nM	31.1 nM	10.4 nM	8.3 nM	14.6 nM	14.4 nM	31.2 nM	0.62	0.61	0.52	0.60	0.54	0.56	7.3 nM	20.4 nM	9.5 nM	IC50 (mcp8 cell line; [6]): 5.3 nM; IC50 (ccu24 cell line; [5]): 22.1 nM; IC50 (cor123 cell line; [5]): 28.2 nM; IC50 (mcp1 cell line; [7]): 6.3 nM; IC50 (A2780cis cell line; [5]): 5.4 nM; IC50 (cor123/cpr cell line; [5]): 11.4 nM; DNA crosslinking (Comet) ratio (L1210): 0.53; IC50 (L1210/M1140 cell line; [5]): 11.4 nM; IC50 (L1210 cell line; [5]): 28.1 nM
